BigSolDB 2.1

CCc1cc(C(N)=S)ccn1
solubility (mole fraction)
Conditions | 278.15 K | 283.15 K | 288.15 K | 293.15 K | 298.15 K | 303.15 K | 308.15 K | 313.15 K | 318.15 K | 323.15 K
in 2-ethoxyethanol | 0.0252 | 0.0261 | 0.0289 | 0.0336 | 0.0383 | 0.0449 | 0.0516 | 0.0596 | 0.0677 | 0.0751
in 2-methoxyethanol | 0.0343 | 0.0387 | 0.0441 | 0.0494 | 0.055 | 0.0617 | 0.0676 | 0.075 | 0.0848 | 0.094
in DMAc | 0.169 | 0.173 | 0.179 | 0.189 | 0.199 | 0.209 | 0.221 | 0.233 | 0.245 | 0.257
in DMF | 0.104 | 0.112 | 0.123 | 0.135 | 0.148 | 0.157 | 0.167 | 0.185 | 0.199 | 0.219
in DMSO | – | – | – | 0.187 | 0.205 | 0.216 | 0.228 | 0.243 | 0.259 | 0.271
in NMP | 0.182 | 0.191 | 0.199 | 0.212 | 0.22 | 0.23 | 0.242 | 0.253 | 0.265 | 0.277
in acetone | 0.00589 | 0.00695 | 0.00799 | 0.00925 | 0.0109 | 0.0124 | 0.0148 | 0.0172 | 0.0194 | 0.0226
in ethanol | 0.00464 | 0.00566 | 0.00695 | 0.00835 | 0.00993 | 0.012 | 0.0134 | 0.0161 | 0.0192 | 0.0228
in ethyl acetate | 0.00874 | 0.0102 | 0.0122 | 0.0144 | 0.0171 | 0.0199 | 0.0231 | 0.0265 | 0.0312 | 0.0381
in isopropanol | 0.00292 | 0.00334 | 0.0042 | 0.00507 | 0.00642 | 0.00805 | 0.0096 | 0.0115 | 0.0143 | 0.018
in methanol | 0.00534 | 0.0063 | 0.0074 | 0.00919 | 0.0112 | 0.013 | 0.0159 | 0.018 | 0.0215 | 0.0256
in n-propanol | 0.00381 | 0.00464 | 0.00562 | 0.00719 | 0.00862 | 0.0103 | 0.0128 | 0.0159 | 0.0192 | 0.0231
